Measurements published in PMC5940854, “Nitrothiophene carboxamides, a novel narrow spectrum antibacterial series: Mechanism of action and Efficacy” (Scientific Reports, 2018).
In brackets after ≈: the same amount, converted by molar mass.

Experiments:
Assay type in all cases: cell-based
E. coli ∆acrB JW0451-2 = assay: MIC, E. coli ∆acrB; design: MIC ∆acrB: unit not given beside the values
Procedure, shortened: (§1)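 Growth inhibition was read as absorbance at 600 nm after exposing 3–7 × 10^5 CFU/ml cultures in M9 medium to final compound concentrations of 40 µg/mL to 0.3 µg/mL. For killing kinetics, ~10^7 CFU/ml cells were treated over 0 to 8 h and survivors counted.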

ATCC25922 = assay: MIC on E. coli ATCC25922; conditions: strain ATCC25922
Procedure, shortened: as §1

E. coli ∆tolC JW5503-1 = assay: MIC, E. coli ∆tolC; conditions: Escherichia coli, read-out: MIC tolC
Procedure, shortened: as §1

[1] = tested on: E. coli clinical isolates; assay: MIC on panel of E. coli clinical isolates
[2] = target: T1, AcrB efflux pump in E. coli BW25113 (Escherichia coli, UniProt P31224); assay: Nile red efflux assay (whole-cell competition)
T1 construct: endogenous in cells; host or cells: E. coli BW25113 (wild type)
T1 sequence (P0AE06 25-397): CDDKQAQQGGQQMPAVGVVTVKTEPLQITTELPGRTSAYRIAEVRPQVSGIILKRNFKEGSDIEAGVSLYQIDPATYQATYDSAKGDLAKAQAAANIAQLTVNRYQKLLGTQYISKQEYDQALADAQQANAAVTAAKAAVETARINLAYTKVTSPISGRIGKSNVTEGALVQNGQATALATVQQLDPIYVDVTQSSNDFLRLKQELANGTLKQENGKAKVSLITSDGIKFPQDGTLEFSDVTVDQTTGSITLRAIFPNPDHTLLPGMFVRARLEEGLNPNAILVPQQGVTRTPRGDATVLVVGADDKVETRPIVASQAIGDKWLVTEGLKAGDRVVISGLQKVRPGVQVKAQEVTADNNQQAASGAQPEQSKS
T1 sequence (P31224 whole entry): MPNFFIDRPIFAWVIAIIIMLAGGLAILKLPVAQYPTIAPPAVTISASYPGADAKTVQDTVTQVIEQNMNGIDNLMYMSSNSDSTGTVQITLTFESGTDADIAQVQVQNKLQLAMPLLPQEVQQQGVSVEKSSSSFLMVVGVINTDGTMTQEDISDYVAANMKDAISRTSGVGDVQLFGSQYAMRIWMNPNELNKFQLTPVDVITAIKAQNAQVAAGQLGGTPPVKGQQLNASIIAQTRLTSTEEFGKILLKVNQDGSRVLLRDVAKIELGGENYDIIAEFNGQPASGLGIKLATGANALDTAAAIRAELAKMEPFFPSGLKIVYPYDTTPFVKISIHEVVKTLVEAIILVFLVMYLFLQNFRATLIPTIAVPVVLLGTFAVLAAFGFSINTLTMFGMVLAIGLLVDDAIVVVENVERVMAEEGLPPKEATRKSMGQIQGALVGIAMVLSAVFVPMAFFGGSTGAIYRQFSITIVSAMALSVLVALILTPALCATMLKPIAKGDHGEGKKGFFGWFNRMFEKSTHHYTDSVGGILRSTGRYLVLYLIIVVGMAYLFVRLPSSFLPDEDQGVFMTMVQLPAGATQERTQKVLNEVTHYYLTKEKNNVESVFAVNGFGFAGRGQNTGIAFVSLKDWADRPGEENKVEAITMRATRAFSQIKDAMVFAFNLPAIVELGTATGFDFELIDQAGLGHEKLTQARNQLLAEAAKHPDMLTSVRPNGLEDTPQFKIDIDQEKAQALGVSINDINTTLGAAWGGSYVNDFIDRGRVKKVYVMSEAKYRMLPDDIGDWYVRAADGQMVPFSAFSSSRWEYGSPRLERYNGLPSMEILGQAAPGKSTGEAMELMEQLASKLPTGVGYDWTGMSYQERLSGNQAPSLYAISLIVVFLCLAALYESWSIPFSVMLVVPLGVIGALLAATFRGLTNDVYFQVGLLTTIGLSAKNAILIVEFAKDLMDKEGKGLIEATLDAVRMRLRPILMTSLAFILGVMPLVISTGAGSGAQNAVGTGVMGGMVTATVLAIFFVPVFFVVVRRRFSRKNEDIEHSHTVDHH
T1 sequence (P02930 23-493, further chain): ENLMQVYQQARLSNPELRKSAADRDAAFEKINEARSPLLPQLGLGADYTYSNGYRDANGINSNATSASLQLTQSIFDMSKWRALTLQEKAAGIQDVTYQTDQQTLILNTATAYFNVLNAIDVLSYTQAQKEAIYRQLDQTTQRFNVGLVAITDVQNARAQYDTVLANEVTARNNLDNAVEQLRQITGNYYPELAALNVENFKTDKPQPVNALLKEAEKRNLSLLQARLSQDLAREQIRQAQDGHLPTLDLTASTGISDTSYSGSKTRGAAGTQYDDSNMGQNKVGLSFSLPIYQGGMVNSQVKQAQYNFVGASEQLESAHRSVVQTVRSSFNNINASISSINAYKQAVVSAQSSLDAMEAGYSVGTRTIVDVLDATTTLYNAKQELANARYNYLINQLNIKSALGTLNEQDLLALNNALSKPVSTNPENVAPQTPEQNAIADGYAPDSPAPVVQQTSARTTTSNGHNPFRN

Compound: O=C(Nc1nc(-c2ccc(F)cc2)cs1)c1ccc([N+](=O)[O-])s1 [compound 15, N-(4-(4-Fluorophenyl)thiazol-2-yl)-5-nitrothiophene-2-carboxamide]
- MIC (E. coli ∆acrB JW0451-2; Escherichia coli, read-out: MIC acrB): 0.6 µg/mL (≈ 1.72 µM)
- MIC ∆acrB (E. coli ∆acrB JW0451-2; Table S11): 0.6
- MIC (ATCC25922): 1.25 µg/mL (≈ 3.58 µM)
- MIC (E. coli ∆tolC JW5503-1): 0.6 µg/mL (≈ 1.72 µM)
- MIC Range ([1]; 75 E.coli clinical isolates): 0.6 to 40 µg/mL
- MIC50 ([1]; Escherichia coli, 75 E.coli clinical isolates, 50% clinical isolates): 1.25 µg/mL (≈ 3.58 µM)
- MIC90 ([1]; Escherichia coli, 75 E.coli clinical isolates, 90% clinical isolates): 10 µg/mL (≈ 28.6 µM)
- MIC ([1]; strain SEC001): 1 µg/mL (≈ 2.86 µM)
- MIC ([1]; strain SEC002): 0.5 µg/mL (≈ 1.43 µM)
- MIC ([1]; strain SEC003): 4 µg/mL (≈ 11.4 µM)
- MIC ([1]; strain SEC004): 1 µg/mL (≈ 2.86 µM)
- MIC ([1]; strain SEC005): 0.5 µg/mL (≈ 1.43 µM)
- MIC ([1]; strain SEC006): 0.5 µg/mL (≈ 1.43 µM)
- MIC ([1]; strain SEC007): 1 µg/mL (≈ 2.86 µM)
- MIC ([1]; strain SEC008): 4 µg/mL (≈ 11.4 µM)
- MIC ([1]; strain SEC011): 0.5 µg/mL (≈ 1.43 µM)
- MIC ([1]; strain SEC012): 1 µg/mL (≈ 2.86 µM)
- MIC ([1]; strain SEC013): 2 µg/mL (≈ 5.72 µM)
- MIC ([1]; strain SEC014): 1 µg/mL (≈ 2.86 µM)
- MIC ([1]; strain SEC015): 0.5 µg/mL (≈ 1.43 µM)
- MIC ([1]; strain SEC016): 8 µg/mL (≈ 22.9 µM)
- MIC ([1]; strain SEC017): 1 µg/mL (≈ 2.86 µM)
- MIC ([1]; strain SEC018): 0.5 µg/mL (≈ 1.43 µM)
- MIC ([1]; strain SEC019): 4 µg/mL (≈ 11.4 µM)
- MIC ([1]; strain SEC020): 1 µg/mL (≈ 2.86 µM)
- MIC ([1]; strain SEC021): 0.5 µg/mL (≈ 1.43 µM)
- MIC ([1]; strain SEC022): 1 µg/mL (≈ 2.86 µM)
- MIC ([1]; strain SEC023): 0.5 µg/mL (≈ 1.43 µM)
- MIC ([1]; strain SEC024): 2 µg/mL (≈ 5.72 µM)
- MIC ([1]; strain SEC025): 4 µg/mL (≈ 11.4 µM)
- MIC ([1]; strain SEC026): 2 µg/mL (≈ 5.72 µM)
- MIC ([1]; strain SEC028): 1 µg/mL (≈ 2.86 µM)
- MIC ([1]; strain SEC029): 8 µg/mL (≈ 22.9 µM)
- MIC ([1]; strain SEC031): 8 µg/mL (≈ 22.9 µM)
- MIC ([1]; strain SEC032): 1 µg/mL (≈ 2.86 µM)
- MIC ([1]; strain SEC033): 1 µg/mL (≈ 2.86 µM)
- MIC ([1]; strain SEC034): 1 µg/mL (≈ 2.86 µM)
- MIC ([1]; strain SEC035): 8 µg/mL (≈ 22.9 µM)
- MIC ([1]; strain SEC036): 2 µg/mL (≈ 5.72 µM)
- MIC ([1]; strain SEC037): 8 µg/mL (≈ 22.9 µM)
- MIC ([1]; strain SEC038): 8 µg/mL (≈ 22.9 µM)
- MIC ([1]; strain SEC039): 4 µg/mL (≈ 11.4 µM)
- MIC ([1]; strain SEC040): 8 µg/mL (≈ 22.9 µM)
- MIC ([1]; strain SEC041): 8 µg/mL (≈ 22.9 µM)
- MIC ([1]; strain SEC042): 8 µg/mL (≈ 22.9 µM)
- MIC ([1]; strain SEC043): 8 µg/mL (≈ 22.9 µM)
- MIC ([1]; strain SEC044): 8 µg/mL (≈ 22.9 µM)
- MIC ([1]; strain SEC045): 8 µg/mL (≈ 22.9 µM)
- MIC ([1]; strain SEC046): 8 µg/mL (≈ 22.9 µM)
- MIC ([1]; strain SEC047): 8 µg/mL (≈ 22.9 µM)
- MIC ([1]; strain SEC048): 8 µg/mL (≈ 22.9 µM)
- MIC ([1]; strain SEC049): 8 µg/mL (≈ 22.9 µM)
- MIC ([1]; strain SEC050): 2 µg/mL (≈ 5.72 µM)
- MIC ([1]; strain SEC051): 2 µg/mL (≈ 5.72 µM)
- MIC ([1]; strain SEC052): 1 µg/mL (≈ 2.86 µM)
- MIC ([1]; strain SEC053): 8 µg/mL (≈ 22.9 µM)
- MIC ([1]; strain SEC054): 1 µg/mL (≈ 2.86 µM)
- MIC ([1]; strain SEC055): 1 µg/mL (≈ 2.86 µM)
- MIC ([1]; strain SEC057): 1 µg/mL (≈ 2.86 µM)
- MIC ([1]; strain SEC058): 0.5 µg/mL (≈ 1.43 µM)
- MIC ([1]; strain SEC059): 0.5 µg/mL (≈ 1.43 µM)
- MIC ([1]; strain SEC060): 0.5 µg/mL (≈ 1.43 µM)
- MIC ([1]; strain SEC061): 2 µg/mL (≈ 5.72 µM)
- MIC ([1]; strain SEC062): 2 µg/mL (≈ 5.72 µM)
- MIC ([1]; strain SEC063): 1 µg/mL (≈ 2.86 µM)
- MIC ([1]; strain SEC064): 1 µg/mL (≈ 2.86 µM)
- MIC ([1]; strain SEC065): 1 µg/mL (≈ 2.86 µM)
- MIC ([1]; strain SEC067): 1 µg/mL (≈ 2.86 µM)
- MIC ([1]; strain SEC068): 1 µg/mL (≈ 2.86 µM)
- MIC ([1]; strain SEC069): 1 µg/mL (≈ 2.86 µM)
- MIC ([1]; strain SEC070): 4 µg/mL (≈ 11.4 µM)
- MIC ([1]; strain SEC071): 8 µg/mL (≈ 22.9 µM)
- MIC ([1]; strain SEC072): 8 µg/mL (≈ 22.9 µM)
- MIC ([1]; strain SEC073): 8 µg/mL (≈ 22.9 µM)
- MIC ([1]; strain SEC074): 1 µg/mL (≈ 2.86 µM)
- MIC ([1]; strain SEC075): 1 µg/mL (≈ 2.86 µM)
- MIC ([1]; strain SEC076): 1 µg/mL (≈ 2.86 µM)
- MIC ([1]; strain SEC077): 0.5 µg/mL (≈ 1.43 µM)
- MIC ([1]; strain SEC078): 0.5 µg/mL (≈ 1.43 µM)
- MIC ([1]; strain SEC079): 1 µg/mL (≈ 2.86 µM)
- MIC ([1]; strain SEC080): 1 µg/mL (≈ 2.86 µM)
- Tefflux50 ([2]; 1µM compound, time for 50% of Nile red to be effluxed, read for 200 seconds): 61.52 s
- Tefflux50 ([2]; 9µM compound): 72.51 s
- Tefflux50 ([2]; 27µM compound): 81.24 s
- Tefflux50 ([2]; 81µM compound): 124.25 s
- Tefflux50 ([2]; 100µM compound): 200 s
- Tefflux50 ([2]; 200µM compound): 200 s
- Tefflux50 ([2]; 400µM compound): 200 s
- Concentration of compound required for complete inhibition of Nile red efflux (Tefflux50 >200 seconds) ([2]; E. coli BW25113): 100 µM
